Results reported in publication PMC4414309, “Target Modulation by a Kinase Inhibitor Engineered to Induce a Tandem Blockade of the Epidermal Growth Factor Receptor (EGFR) and c-Src: The Concept of Type III Combi-Targeting” (PLoS ONE, 2015).

How the values were obtained:
phospho-EGFR (Y1068) = assay: Western blot of EGFR phosphorylation in cells; assay type: cell-based, mouse
Method: (§1) NIH3T3-Her14 and 4T1 cells grown in 10% FBS containing media were plated (~ 1 x 10^6 cells/well) in 6-well plates and allowed to attach overnight (37°C, 5% CO2). The cells were rinsed twice with PBS twenty-four hours later and starved overnight on addition of serum-free media. Thereafter, they were treated with different doses of AL776 for 2 hours, washed with PBS (twice) and stimulated with 50 ng/ml EGF for 30 min at 37°C. Cells were washed, detached by scraping in ice-cold PBS and collected by centrifugation for 15 min at 3000 rpm. Cell pellets were re-suspended in cold lysis buffer 50 mM Tris-HCl pH 7.5; 150 mM NaCl; 1% Nonidet P-40, 1 mM EDTA; 5 mM NaF; 1 mM Na3VO4; protease inhibitor tablet (Roche Biochemicals, Laval, Canada)]. Lysates were kept on ice for 1 h and collected by centrifugation at 13,000 rpm for 20 min at 4°C. The concentration of protein was determined using the Bio-Rad protein assay kit (Bio-Rad laboratories, Hercules, CA). Equal amounts of proteins were loaded, resolved on 10% SDS-PAGE and thereafter transferred to a polyvinylidenedifluoride (PVDF) membrane (Milipore, Bedford, MA). […]

4T1 cells = assay: Boyden chamber invasion assay, 4T1; assay type: cell-based, mouse; details: 4T1, concentration as low as 0.1 μM, 24h
Method: The invasive property of MDA-MB-231 and 4T1 cells was determined using the Boyden-chamber invasion assay. Cells suspended in serum-free media were plated (120–150,000 cells/well) onto polycarbonate transwell inserts (8 μm pore size, BD Biosciences) coated with matrigel (6%) (BD Biosciences), separating the top and bottom chambers (50 μl/filter). […] The invasive property of cells was observed 24h after treatment by fixing cells in formalin and staining with 0.1% crystal violet (Sigma-Aldrich Canada Ltd). Cells attached on the upper surface of the insert (top chamber) were removed by gently scraping away with a cotton swab, whereas those that invaded onto the lower side of the insert were observed using a microscope (Leica DM IL inverted microscope, 10X). Images of five non-overlapping fields of invading cells were captured using the Leica DFC300FX camera and quantification was done using the Scion Image Analysis (3.53.0.0) software and ImageJ 1.46r software. The results were expressed in terms of percentage of invading cells relative to control and the bar graphs represent the average of three independent experiments.

MDA-MB-231 cells = assay: Wound-healing assay, MDA-MB-231; assay type: cell-based, human; details: MDA-MB-231, 0.1 μM, 24h drug exposure
Method: MDA-MB-231 and 4T1 cells were plated in 6-well plates (500,000 cells/well) and allowed to attach overnight (37°C, 5% CO2). The following day, media was removed and a cross scratch was made in the middle of the cell monolayer. […] The scratch was visualized at two different time points (0 and 24h) using the Leica DM IL inverted microscope (10X) and images were obtained using the Leica DFC300FX camera.

[1] = test system: ERK1/2 phosphorylation in 4T1 tumours; assay: Pharmacodynamics in 4T1 tumours, ERK1/2 phosphorylation; details: i.v., AL776 40 mg/kg, gefitinib + dasatinib 20 mg/kg each
Method: Mice were implanted with 4T1 mammary tumour cells, 15 million cells/flank (suspended in 200 μL PBS), subcutaneously.
Mice were sacrificed 1h or 24h after treatment and their tumours were collected and snap frozen at -80°C for further analysis using western blots. Tumours were crushed using a mortar/pestle chilled using liquid nitrogen and lysed with RIPA buffer diluted to a 1X concentration and supplemented with 1mM PMSF (Cell Signaling Technology, USA). Western blot analysis was carried out with the tumour samples, similar to the method described earlier.

EGFR = target: T1, EGFR (Homo sapiens, UniProt P00533); assay: In vitro kinase assay, EGFR; assay type: biochemical; details: ATP 50 μM, average of three independent experiments in duplicate, read-out: IC50 EGFR kinase inhibition
T1 construct: purchased Enzo Life Sciences Inc, NY, USA; Signal Chem, Richmond, Canada
Method: (§2) The EGFR and c-Src kinase assays were performed in 96-well plates (NuncMaxisorp) coated with PGT (poly L-glutamic acid L-tyrosine, 4:1, Sigma Aldrich, MO, USA) and incubated at 37°C for 48h prior to using. PGT served as the substrate to be phosphorylated by EGFR (Enzo Life Sciences Inc, NY, USA, Signal Chem, Richmond, Canada) and c-Src (Enzo Life Sciences Inc, NY, USA, Signal Chem, Richmond, Canada) in the presence of ATP (50 μM). […] To each well, 15 ng of EGFR (20 μg/ml) or 6 ng of c-Src (0.1 μg/μl) were added. The phosphorylated substrate was detected using an HRP-conjugated anti-phosphotyrosine antibody (Santa Cruz Biotechnology, CA). The signal was developed by the addition of 3, 3’, 5, 5’-tetramethylbenzidine peroxidase substrate (Kierkegaard and Perry Laboratories, Gaithersburg, MD) and the colorimetric reaction was monitored at 450 nm using a microplate reader ELx808 (BioTek Instruments). The IC50 values were calculated using GraphPad Prism 6.0 (GraphPadSoftware, Inc., San Diego, CA). Each experiment was carried out at least three times, in duplicate.

4T1 tumours = assay type: in vivo; details: 40 mg/kg i.v. once/day for 5 days
phospho-Src (Y416) = assay: Western blot of c-Src phosphorylation in cells; assay type: cell-based, mouse
Method: as §1

c-Src = target: T2, c-Src (Homo sapiens, UniProt P12931); assay: In vitro kinase assay, c-Src; assay type: biochemical; details: ATP 50 μM, read-out: IC50 c-Src kinase inhibition
T2 construct: purchased Enzo Life Sciences Inc, NY, USA; Signal Chem, Richmond, Canada
Method: as §2

NIH3T3 wild type cells = assay: Growth inhibition, sulforhodamine B (SRB) assay, NIH3T3 wild type; details: Mus musculus, NIH3T3, 120 h, read-out: IC50 growth inhibition NIH3T3 – Wt
Method: Growth inhibition was measured in cells using the sulforhodamine B (SRB) assay [48]. […] The plates were subsequently rinsed with 1% acetic acid, and allowed to dry overnight. […] The results were analyzed using GraphPad Prism 6.0 (GraphPadSoftware, Inc., San Diego, CA) and the sigmoidal dose response curve was used to determine IC50 values. Each experiment was carried out at least four times, in triplicate.

[2] = NIH3T3-Her14 and 4T1 cells, 2 h drug, EGF 50 ng/ml 30 min

T1 sequence (P00533 25-1210): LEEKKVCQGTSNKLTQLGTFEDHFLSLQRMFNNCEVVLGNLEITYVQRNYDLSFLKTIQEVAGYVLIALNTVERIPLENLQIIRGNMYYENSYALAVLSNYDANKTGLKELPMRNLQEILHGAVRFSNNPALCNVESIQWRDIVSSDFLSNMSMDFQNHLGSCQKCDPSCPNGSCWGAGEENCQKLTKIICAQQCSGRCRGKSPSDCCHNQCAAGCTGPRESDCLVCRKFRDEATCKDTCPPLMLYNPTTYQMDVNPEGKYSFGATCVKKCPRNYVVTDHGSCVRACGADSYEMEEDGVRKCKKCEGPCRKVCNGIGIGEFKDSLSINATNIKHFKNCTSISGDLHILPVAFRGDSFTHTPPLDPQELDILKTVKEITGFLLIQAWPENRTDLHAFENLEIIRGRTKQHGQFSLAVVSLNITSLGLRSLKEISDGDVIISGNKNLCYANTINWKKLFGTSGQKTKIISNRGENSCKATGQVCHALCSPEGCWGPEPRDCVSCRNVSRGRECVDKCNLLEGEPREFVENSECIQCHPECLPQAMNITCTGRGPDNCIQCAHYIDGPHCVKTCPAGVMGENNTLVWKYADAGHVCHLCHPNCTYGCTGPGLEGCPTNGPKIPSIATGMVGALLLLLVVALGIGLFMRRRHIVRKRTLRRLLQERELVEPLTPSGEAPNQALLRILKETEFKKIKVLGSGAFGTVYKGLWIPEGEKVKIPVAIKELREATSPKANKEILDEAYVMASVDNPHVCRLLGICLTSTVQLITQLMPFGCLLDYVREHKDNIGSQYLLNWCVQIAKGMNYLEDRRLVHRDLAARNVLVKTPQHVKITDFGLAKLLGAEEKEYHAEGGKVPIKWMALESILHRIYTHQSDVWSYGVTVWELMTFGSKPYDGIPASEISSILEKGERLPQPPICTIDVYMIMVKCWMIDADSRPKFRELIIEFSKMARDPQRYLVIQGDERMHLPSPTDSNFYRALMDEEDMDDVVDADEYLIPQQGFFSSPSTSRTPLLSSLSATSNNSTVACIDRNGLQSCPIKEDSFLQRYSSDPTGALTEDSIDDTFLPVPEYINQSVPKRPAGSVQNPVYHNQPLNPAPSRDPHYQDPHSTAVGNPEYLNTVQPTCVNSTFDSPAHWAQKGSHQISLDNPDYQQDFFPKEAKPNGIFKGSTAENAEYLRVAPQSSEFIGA
T2 sequence (P12931 whole entry): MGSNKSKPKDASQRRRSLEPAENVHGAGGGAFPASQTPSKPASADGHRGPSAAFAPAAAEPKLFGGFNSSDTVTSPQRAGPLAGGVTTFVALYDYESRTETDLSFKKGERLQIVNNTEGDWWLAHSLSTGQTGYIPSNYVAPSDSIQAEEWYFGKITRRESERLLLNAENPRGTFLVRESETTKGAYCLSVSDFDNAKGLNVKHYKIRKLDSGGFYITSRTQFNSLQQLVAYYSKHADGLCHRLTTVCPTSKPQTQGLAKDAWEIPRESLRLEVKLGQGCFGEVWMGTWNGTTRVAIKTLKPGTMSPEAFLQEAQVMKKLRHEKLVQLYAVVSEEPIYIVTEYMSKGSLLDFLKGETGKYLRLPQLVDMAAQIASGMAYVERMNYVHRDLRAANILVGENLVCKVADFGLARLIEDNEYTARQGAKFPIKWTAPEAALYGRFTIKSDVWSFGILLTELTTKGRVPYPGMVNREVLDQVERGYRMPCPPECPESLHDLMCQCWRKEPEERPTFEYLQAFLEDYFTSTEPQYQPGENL

SMILES: Cc1nc(Nc2ncc(C(=O)Nc3c(C)cccc3Cl)s2)cc(N2CCN(CCOC(=O)CCC(=O)OCCN(C)Cc3ccc(C(=O)Nc4ccc5ncnc(Nc6cccc(Cl)c6)c5c4)cc3)CC2)n1 [AL776]
- Concentration of maximal inhibition of EGFR phosphorylation (phospho-EGFR (Y1068); [2]): 1 µM
- Concentration of robust inhibition of EGFR phosphorylation in cells (phospho-EGFR (Y1068); in cells): 0.25 to 1 µM
- Effect on invasion (4T1 cells): strongly inhibited invasion
- Effect on wound-closure (MDA-MB-231 cells): blocked wound-closure
- Inhibition of ERK1/2 phosphorylation in tumours ([1]; 1h post-administration): strongly inhibited
- Inhibition of ERK1/2 phosphorylation in tumours ([1]; 24 h post-treatment): reversed
- IC50 (EGFR): 120 nM
- Tumour mass at end of study, control versus treated (4T1 tumours): no difference observed
- Effect on tumour growth (tumour volume) (4T1 tumours; monitored two weeks): unable to block tumour growth
- Concentration of maximal inhibition of c-Src phosphorylation (phospho-Src (Y416); [2]): 1 µM
- Concentration of robust inhibition of c-Src phosphorylation in cells (phospho-Src (Y416); in cells): 0.25 to 1 µM
- IC50 (c-Src): 3 nM
- IC50 (NIH3T3 wild type cells): 7600 ± 3000 nM
